Reference: US5053431A, “Derivatives of chrysophanol as topoisomerase II inhibitors” (Sloan-Kettering Institute For Cancer Research, priority 1990, dated 1991)
Values after ≈ are worked out from the molar mass of the structure shown. Where two headings read alike, the source gives them in different places. Blank lines part the entries; values can stand above or below the compound they belong to.

How the values were obtained:
cancer = details: literature; cited from earlier work
peroxidases = details: literature; cited from earlier work
[1] = tested on: proteins, polyadenylate, RNA, DNA; details: literature; cited from earlier work
DNA = details: literature; cited from earlier work
[2] = Solubility in aqueous solutions; format: physicochemical
[3] = tested on: mouse leukemia L1210 cells; experiment: Inhibition of L1210 cell growth; format: cell-based
Method: Preliminary biological data for inhibiting cell growth of murine L1210 leukemic cells and human acute promyelocytic leukemia cells (HL-60) during 72 h of exposure to the compounds are given in Table IV. The potencies for inhibiting [^3 H]TdR incorporation into DNA in HL-60 cells during the initial 30-min period are also given in Table IV. It is interesting to note that 1,8-di-O-methyl derivatives are uniformly devoid of activity against L1210 leukemic cells. […] The B/A ratios allow an indirect estimation of whether or not cytotoxicities exerted by these analogues are primarily due to initial inhibition of DNA synthesis. […] Whether these analogues, like m-AMSA, ellipticine, or anthracyclines, act by inhibiting DNA topoisomerase II remains to be explored. […] Our preliminary experiments indicate that the compounds arrest cells in the S and/or G2 phases of the cell cycle (unpublished results).

[4] = tested on: human leukemia HL-60 cells; experiment: HL-60 cell growth inhibition (72 h); format: cell-based; details: HL-60, 72 h, read-out: ID50, M [HL-60 cell growth (72 h)] (A)
Method: For cell growth inhibition studies, HL-60 cells […]) were grown in RPMI 1640 media at 37° C. in humidified 5% CO2 for 72 h. Viable cells were counted with the trypan blue exclusion method. The fractional inhibitions at four or five concentrations of compounds (in 0.2% DMSO) were analyzed with a median-effect plot (Chou, T.-C., et al., Adv. Enzyme Regul. 22:27 (1984)) by using a computer program. (Chou, J.; Chou, T.-C. Dose-Effect Analyses with Microcomputer. Quantitation of ID50, LD50, Synergism, Antagonism, Low-dose Risk, Receptor-Binding and Enzyme Kinetics; IBM-PC Series, Elsevier-Biosoft, Elsevier Scientific: Cambridge, U.K., (1986)). The median-effect concentration (ID50) was automatically determined for the x intercept of the median-effect plot. Cell growth in the absence of a compound and in the presence of DMSO was used as a control. DMSO (0.2%) alone inhibited cell growth 3.8±1.2% during the 72-h incubation period.

[5] = tested on: [^3 H]TdR incorporation into DNA in HL-60 cells; experiment: Inhibition of [3H]TdR incorporation into DNA in HL-60 cells (initial 30 min); format: cell-based, human; details: for IC50: HL-60, initial 30 min exposure, read-out: ID50, M (HL-60 TdR into DNA (B)); for B/A: ratio of ID50 for TdR incorporation (B) to ID50 for cell growth (A), HL-60
Method: For precursor incorporation studies, each compound at four to six concentrations (0.2% DMSO) was preincubated with HL-60 cells (2.5×10^6 /Ml) for 15 min prior to the addition of [^3 H-methyl]TdR (1 μCi, 0.15 nmol/mL) and was incubated for 30 min. […] The incorporation of radioactivity in DNA in the absence of an analogue in the presence of DMSO was used as a control.

Stability of compound = format: physicochemical
leukemia L1210/Cisplatin = experiment: Activity against Cisplatin-resistant leukemia L1210 in mice; format: in vivo, mouse
Method: At the dosage of 100 mg/kg/day×5 (ip), mice inoculated with Cisplatin resistant leukemia L1210/Cisplatin are cured.

leukemic cells = experiment: Antileukemic activity (Experiment 3); format: cell-based; details: read-out: antileukemic activity IC>es
Topo II [6] = experiment: Inhibition of kDNA decatenation; format: biochemical
Topo II [7] = experiment: Mapping of DNA-Topo II cleavage sites (Hind III-digested 3'-labeled DNA, HL-60 nuclear extracts); format: biochemical, human (HL-60); details: 10 uM
Method: (§1) This experiment concerns Topoisomerase II (Topo II)-mediated DNA cleavage activity induced by chrysophanol derivatives. 3-(bis[2-chloroethyl]amino)methyl-1,8-dihydroxy-9,10-anthraquinone (SK-31662) and 3-(2-hydroxyethylamino)methyl-1,8-dihydroxy-9,10-anthraquinone (SK-31694) have antileukemic activity with IC>es of 0.14 and 0.86 uM, respectively. SK-31662 and SK-31694 inhibit kDNA decatenation at 48 and 38 uM, respectively.

Topo II [8] = experiment: Topo II cleavable complex formation; format: biochemical, human (HL-60); details: 3'-labeled DNA and NE of HL-60
Method: as §1

Topo II [9] = experiment: Heat reversal of protein-linked DNA complex; format: biochemical, human (HL-60); details: 65 degrees C
Method: as §1

[10] = tested on: DNA (native and thermally denatured); experiment: Spectrophotometric study of DNA interaction; format: binding, calf thymus; details: Me2 SO to 1:1 v/v
Method: Some representative compounds were studied for their ability to interact with nucleic acids in solution by comparison of the electronic spectrum of drug alone with that of the drug in the presence of an excess of nucleic acid. All drugs studied have an absorption band in the visible region, separate from the absorption band of the nucleic acids, and therefore any changes in band intensity and position were indicative of drug chromophore-DNA interaction.
Absorption spectra were measured with an IBM 9410 UV-visible spectrometer interfaced to an HP 9826 computer. Small volumes of the stock drug solutions (2 mg/mL in Me2 SO) were added to 2 mL of buffer (0.01 or 0.1 M NaCl, 5 mM Hepes, pH 7) to obtain a final drug concentration of 5-15 μM, or to the solution of native or thermally denatured DNA (0.2 and 0.1 mM, respectively) in the buffer. After incubation at room temperature for 10 min, the spectra were recorded in the 300-600 nm range (increment 1 nm) and corrected by subtracting the spectrum of the blank which was measured before addition of the drug.

SMILES: Cc1c2cc[n+](C)cc2c(C)c2c1[nH]c1ccc(O)cc12 [9-OH-NME, 2-N-Methyl-9-hydroxyellipticinium]
anticancer activity (cancer): one of the most active drugs among the ellipticine analogues
oxidation by peroxidases (peroxidases): easily oxidized by peroxidases

SMILES: Cc1c2c(c(C)c3c[n+](C)ccc13)C1=CC(=O)C=CC1=N2 [9-oxo-NME, 9-oxo-2-methylellipticinium]
alkylation of macromolecules [1]: easily alkylated by 9-oxo-NME

SMILES: COc1c(O)c2c(c3cc(C(=O)N4CCc5c4c(O)c(OC)c4[nH]c(C(=O)N6CC7CC78C6=CC(=O)c6[nH]cc(C)c68)cc54)[nH]c13)CCN2C(N)=O (stereo not shown) [CC1065]
DNA binding / alkylation (DNA): binds to the minor groove of DNA by nonintercalative means and then slowly alkylates the amino group of adenine

SMILES: Cc1cc(O)c2c(c1)C(=O)c1cccc(O)c1C2=O [IIa, chrysophanol]
solubility in aqueous solutions [2]: low solubility in aqueous solutions

solubility in aqueous solutions [2]: low solubility in aqueous solutions
SMILES: Cc1cc(O)c2c(c1)C(=O)c1cc(O)cc(O)c1C2=O [IIb, emodin]

SMILES: COc1cccc2c1C(=O)c1c(OC)cc(CNCCCl)cc1C2=O [IXa-7, 3-[N-(2-chloroethyl)amino]methyl-1,8-dimethoxy-9,10-anthraquinone]
IC50 ([3]; Mus musculus, L1210, 72 h, read-out: ID50, M (L1210 cell growth)): 26 µM
IC50 ([4]; Homo sapiens): 86 µM
IC50 ([5]; Homo sapiens, 0.5 h): 19 µM
B/A [5]: 0.22
stability (Stability of compound): unstable

SMILES: O=C1c2cccc(O)c2C(=O)c2c(O)cc(CN(CCCl)CCCl)cc21 [XIa-3, 3-(bis[2-chloroethyl]amino)methyl-1,8-dihydroxy-9,10-anthraquinone]
ID50 ([3]; Table I): 0.058 µg/mL (≈ 0.147 µM)
IC50 ([3]; Table I, read-out: ID50 (the source's name)): 0.13 µM
IC50 ([4]; 0.2% DMSO): 0.18 µM
IC50 [5]: 69 µM
B/A [5]: 383
cure of mice inoculated with Cisplatin resistant leukemia L1210/Cisplatin (leukemia L1210/Cisplatin; 100 mg/kg/day×5 (ip)): cured
potency against mouse leukemia L1210 made resistant to Cisplatin (leukemia L1210/Cisplatin; mouse, in vivo): extremely potent
IC50 (leukemic cells): 0.14 µM
concentration that inhibits kDNA decatenation (Topo II [6]): 48 µM
protein-linked DNA breaks, cleavage site pattern (Topo II [7]): induce protein-linked DNA breaks with a cleavage site pattern similar to m-AMSA
formation of Topo II cleavable complex (Topo II [8]): stimulate the formation of Topo II cleavable complex
reversal of protein-linked DNA by heat (Topo II [9]): cannot be reversed up to 15 min

SMILES: O=C1c2cccc(O)c2C(=O)c2c(O)cc(CNCCO)cc21 [XIa-6, 3-(2-hydroxyethylamino)methyl-1,8-dihydroxy-9,10-anthraquinone]
IC50 ([3]; Mus musculus, L1210, Table I, read-out: ID50 (the source's name)): 0.16 µM
IC50 ([3]; Mus musculus, L1210, Table I, read-out: ID50 (μg/mL)): 0.066 µg/mL
IC50 ([4]; Homo sapiens, 0.2% DMSO): 0.86 µM
IC50 ([5]; Homo sapiens, 0.5 h): 15 µM
B/A [5]: 17.4
IC50 (leukemic cells): 0.86 µM
concentration that inhibits kDNA decatenation (Topo II [6]): 38 µM
protein-linked DNA breaks, cleavage site pattern (Topo II [7]): induce protein-linked DNA breaks with a cleavage site pattern similar to m-AMSA
formation of Topo II cleavable complex (Topo II [8]): stimulate the formation of Topo II cleavable complex
reversal of protein-linked DNA by heat (Topo II [9]): reduced during 0.5 min exposure to 65 °C

SMILES: O=C1c2cccc(O)c2C(=O)c2c(O)cc(CNCCCl)cc21 [XIa-7, 3-[N-(2-chloroethyl)amino]methyl-1,8-dihydroxy-9,10-anthraquinone]
IC50 ([3]; Mus musculus, L1210, read-out: ID50 (μM)): 7.11 µM
IC50 ([3]; Mus musculus, L1210, read-out: ID50 (μg/mL)): 2.37 µg/mL
IC50 ([4]; Homo sapiens): 7.5 µM
IC50 ([5]; Homo sapiens, 0.5 h): 39 µM
B/A [5]: 5.2
reversal of DNA induced changes in absorption spectra by Me2SO [10]: could be reversed by addition of Me2 SO
stability (Stability of compound): unstable
